According to patent publication US20070299072A1, “KV1.5 POTASSIUM CHANNEL INHIBITORS” (Wyeth, priority 2006, published 2007):

molecular target: T1, Kv1.5 (Homo sapiens, UniProt P22460); experiment: Kv1.5 Patch Clamp EP (whole cell patch clamp; single point at 1 μM and IC50); format: cell-based; settings: single point at 1.0 μM, Kv1.5 stably over expressed in HEK or LTK- cells
T1 construct: expressed in transfected cells; host or cells: HEK or LTK- cells
Description: The external solution is standard Tyrodes solution. […] Inhibition was measured at the end of the 1 second pulses and expressed relative to controls. Initial Kv1.5 inhibition is estimated by single point determinations done at 1 μM.

T1 sequence (P22460 whole entry): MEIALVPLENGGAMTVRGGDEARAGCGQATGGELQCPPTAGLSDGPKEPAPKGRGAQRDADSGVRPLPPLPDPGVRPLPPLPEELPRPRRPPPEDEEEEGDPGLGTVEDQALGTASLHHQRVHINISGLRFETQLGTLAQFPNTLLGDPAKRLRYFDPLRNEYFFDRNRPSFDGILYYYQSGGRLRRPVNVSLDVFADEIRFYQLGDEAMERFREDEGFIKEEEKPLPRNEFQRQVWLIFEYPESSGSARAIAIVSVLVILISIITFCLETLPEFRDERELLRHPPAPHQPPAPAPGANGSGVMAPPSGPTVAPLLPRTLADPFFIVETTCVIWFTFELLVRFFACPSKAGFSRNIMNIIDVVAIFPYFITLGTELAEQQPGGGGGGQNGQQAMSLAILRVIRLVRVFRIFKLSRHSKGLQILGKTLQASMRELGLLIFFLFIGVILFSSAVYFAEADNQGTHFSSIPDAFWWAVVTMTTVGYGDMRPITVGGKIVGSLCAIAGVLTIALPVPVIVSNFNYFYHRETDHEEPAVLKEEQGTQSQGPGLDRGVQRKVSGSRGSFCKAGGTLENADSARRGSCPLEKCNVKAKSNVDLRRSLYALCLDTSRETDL

Row | SMILES | inhibition at 1 µM [%]
1 | COc1ccc(CCN2C(=O)C3(CCN(C(=O)NC(C)C)CC3)N(C)C2c2ccc(OC)cc2)cc1 (centres unmarked) [Compound 17, 2-(4-Methoxyphenyl)-3-[2-(4-methoxyphenyl)ethyl]-1-methyl-4-oxo-1,3,8-triaza-spiro[4.5]decane-8-carboxylic acid isopropylamide] | 31
2 | COc1ccc(CCN2C(=O)C3(CCN(C(=O)OC(C)(C)C)CC3)N(C)C2c2ccc(C(C)(C)C)cc2)cc1 (centres unmarked) [Compound 38, tert-Butyl 2-(4-tert-butylphenyl)-3-[2-(4-methoxyphenyl)ethyl]-1-methyl-4-oxo-1,3,8-triazaspiro[4.5]decane-8-carboxylate] | 28
3 | COc1ccc(CCN2C(=O)C3(CCN(C(=O)OC(C)(C)C)CC3)N(C)C2c2ccc(OC(F)F)cc2)cc1 (centres unmarked) [Compound 40, tert-Butyl 2-(4-difluoromethoxyphenyl)-3-[2-(4-methoxyphenyl)ethyl]-1-methyl-4-oxo-1,3,8-triazaspiro[4.5]decane-8-carboxylate] | 22
4 | COc1ccc(CCN2C(=O)C3(CCN(CC(N)=O)CC3)N(C)C2c2ccc(OC(F)F)cc2)cc1 (centres unmarked) [Compound 57, 2-{2-(4-Difluoromethoxyphenyl)-3-[2-(4-methoxyphenyl)ethyl]-1-methyl-4-oxo-1,3,8-triaza-spiro[4.5]dec-8-yl}acetamide] | 25
5 | COc1ccc(CCN2C(=O)C3(CCN(C(=O)OC(C)(C)C)CC3)NC2c2ccc(C(C)(C)C)cc2)cc1 (centres unmarked) [Compound 60, 2-(4-tert-Butylphenyl)-3-[2-(4-methoxyphenyl)ethyl]-4-oxo-1,3,8-triaza-spiro[4.5]decane-8-carboxylic acid tert-butyl ester] | 32
6 | COc1ccc(CCN2C(=O)C3(CCN(C(=O)OC(C)(C)C)CC3)NC2c2ccc(C3CC3)cc2)cc1 (centres unmarked) [Compound 64, 2-(4-cyclopropylphenyl)-3-[2-(4-methoxyphenyl)ethyl]-4-oxo-1,3,8-triaza-spiro[4.5]decane-8-carboxylic acid tert-butyl ester] | 36
7 | COc1ccc(CCN2C(=O)C3(CCNCC3)N(C)C2Cc2ccc(C(C)(C)C)cc2)cc1 (centres unmarked) [Compound 69, 2-(4-tert-butylbenzyl)-3-[2-(4-methoxyphenyl)ethyl]-1-methyl-1,3,8-triazaspiro[4.5]decan-4-one] | 5
8 | COc1ccc(CCN2C(=O)C3(CCN(C(N)=O)CC3)N(C)C2c2ccc(OC)cc2)cc1 (centres unmarked) [Compound 72, 2-(4-methoxyphenyl)-3-[2-(4-methoxyphenyl)ethyl]-1-methyl-4-oxo-1,3,8-triazaspiro[4.5]decane-8-carboxamide] | 16
9 | COc1ccc(CCN2C(=O)C3(CCN(C(=O)OC(C)(C)C)CC3)NC2c2ccc(OC)cc2)cc1 (centres unmarked) [Compound 73, tert-butyl 2-(4-methoxyphenyl)-3-[2-(4-methoxyphenyl)ethyl]-4-oxo-1,3,8-triazaspiro[4.5]decane-8-carboxylate] | 11
10 | COc1ccc(CCN2C(=O)C3(CCNCC3)NC2c2ccc(C(C)(C)C)cc2)cc1 (centres unmarked) [Compound 76, 2-(4-tert-butylphenyl)-3-[2-(4-methoxyphenyl)ethyl]-1,3,8-triazaspiro[4.5]decan-4-one] | 5

Now from value to compound:

Row | inhibition at 1 µM [%] | SMILES
11 | 2 | COc1ccc(CCN2C(=O)C3(CCNCC3)N(C)C2c2ccc(C3CC3)cc2)cc1 (centres unmarked) [Compound 1, 2-(4-Cyclopropylphenyl)-3-[2-(4-methoxyphenyl)ethyl]-1-methyl-1,3,8-triaza-spiro[4.5]decan-4-one]
12 | 6 | COc1ccc(CCN2C(=O)C3(CCNCC3)N(C)C2c2ccc(C(C)(C)C)cc2)cc1 (centres unmarked) [Compound 2, 2-(4-tert-Butylphenyl)-3-[2-(4-methoxyphenyl)ethyl]-1-methyl-1,3,8-triaza-spiro[4.5]decan-4-one]
13 | 6 | COc1ccc(CCN2C(=O)C3(CCNCC3)N(C)C2c2ccc(OC(F)F)cc2)cc1 (centres unmarked) [Compound 3, 2-(4-Difluoromethoxyphenyl)-3-[2-(4-methoxyphenyl)ethyl]-1-methyl-1,3,8-triaza-spiro[4.5]decan-4-one]
14 | 10 | COc1ccc(CCN2C(=O)C3(CCN(C(=O)N(C)C)CC3)N(C)C2c2ccc(C3CC3)cc2)cc1 (centres unmarked) [Compound 18, 2-(4-Cyclopropylphenyl)-3-[2-(4-methoxyphenyl)ethyl]-1-methyl-4-oxo-1,3,8-triaza-spiro[4.5]decane-8-carboxylic acid dimethylamide]
15 | 17 | COC(=O)N1CCC2(CC1)C(=O)N(CCc1ccc(OC)cc1)C(c1ccc(C3CC3)cc1)N2C (centres unmarked) [Compound 41, Methyl 2-(4-cyclopropylphenyl)-3-[2-(4-methoxyphenyl)ethyl]-1-methyl-4-oxo-1,3,8-triazaspiro[4.5]decane-8-carboxylate]
16 | 23 | CN1C(c2ccc(C3CC3)cc2)N(CCCc2ccccc2)C(=O)C12CCNCC2 (centres unmarked) [Compound 43, 2-(4-Cyclopropylphenyl)-1-methyl-3-(3-phenylpropyl) —1,3,8-triazaspiro[4.5]-decan-4-one]
17 | 12 | COc1ccc(CCN2C(=O)C3(CCN(CC4CC4)CC3)N(C)C2c2ccc(C3CC3)cc2)cc1 (centres unmarked) [Compound 56, 8-Cyclopropylmethyl-2-(4-cyclopropylphenyl)-3-[2-(4-methoxyphenyl)ethyl]-1-methyl-1,3,8-triaza-spiro[4.5]decan-4-one]
18 | 11 | COc1ccc(CCN2C(=O)C3(CCN(C(=O)C(C)(C)N)CC3)N(C)C2c2ccc(C3CC3)cc2)cc1 (centres unmarked) [Compound 59, 8-(2-Amino-2-methylpropionyl)-2-(4-cyclopropylphenyl)-3-[2-(4-methoxyphenyl)ethyl]-1-methyl-1,3,8-triaza-spiro[4.5]decan-4-one]
19 | 42 | COc1ccc(CCN2C(=O)C3(CCN(C(=O)C(C)(C)NC(=O)OC(C)(C)C)CC3)N(C)C2c2ccc(C3CC3)cc2)cc1 (centres unmarked) [Compound 70, (2-{2-(4-cyclopropylphenyl)-3-[2-(4-methoxyphenyl)ethyl]-1-methyl-4-oxo-1,3,8-triaza-spiro[4.5]dec-8-yl}-1,1-dimethyl-2-oxo-ethyl)-carbamic acid tert-butyl ester]
20 | 5 | COc1ccc(CCN2C(=O)C3(CCN(C(N)=O)CC3)NC2c2ccc(C3CC3)cc2)cc1 (centres unmarked) [Compound 74, 2-(4-cyclopropylphenyl)-3-[2-(4-methoxyphenyl)ethyl]-4-oxo-1,3,8-triazaspiro[4.5]decane-8-carboxamide]
21 | 7 | CN1C(c2ccc(C3CC3)cc2)N(CCc2ccc(OC(F)(F)F)cc2)C(=O)C12CCN(C(=O)OC(C)(C)C)CC2 (centres unmarked) [Compound 77, tert-butyl 2-(4-cyclopropylphenyl)-1-methyl-4-oxo-3-{2-[4-(trifluoromethoxy)phenyl]ethyl}-1,3,8-triazaspiro[4.5]decane-8-carboxylate]
22 | 16 | CN1C(c2ccc(C3CC3)cc2)N(CCc2ccc(OC(F)(F)F)cc2)C(=O)C12CCNCC2 (centres unmarked) [Compound 78, 2-(4-cyclopropylphenyl)-1-methyl-3-{2-[4-(trifluoromethoxy)phenyl]ethyl}-1,3,8-triazaspiro[4.5]decan-4-one]
23 | 8 | COc1ccc(CCN2C(=O)C3(CCN(S(C)(=O)=O)CC3)NC2c2ccc(C3CC3)cc2)cc1 (centres unmarked) [Compound 79, 2-(4-cyclopropylphenyl)-3-[2-(4-methoxyphenyl)ethyl]-8-(methylsulfonyl)-1,3,8-triazaspiro[4.5]decan-4-one]
